Values joined by “and” are separate entries in the source; they are usually repeats but may differ in a detail not shown here. Equal entries are not always repeated.
Columns and labels:
C. parvum oocysts = test: Intact C. parvum oocyst assay (Example III), immunofluorescence; type: cell-based, Cryptosporidium parvum; conditions: for Parasite - Mean parasite count/field (12 fields analyzed) / %Inhib - Percent inhibitation of parasite infection: 48 hr.; for %Inhib - Percent inhibitation of parasite infection: listed as NTZ
Procedure: Each concentration of nitazoxanide and the media controls contained 0.025% DMSO as a constant. The experiment used a cell culture of MDBKF5D2 Cells grown in 7 mm chambers, and as Cryptosporidium parvum: GCH1 oocysts, 5 X 10^4 per well, and was conducted to compare paromomycin (positive control) against nitazoxanide (experimental drug). […] 5 x 104 C. parvum oocysts per well are incubated in the pre-mentioned concentrations of nitazoxanide at 37°C (8% CO2) on confluent MDBKF5D2 cell monolayers. The level of infection in each well was determined and computer analyzed by an immunofluorescence assay at 48 hours. […] (Medium control count - Drug test count)/(Medium control count)x 100 [formula] Conc. - µg/ml; Parasite - Mean parasite count/field (12 fields analyzed); %Inhib - Percent inhibitation of parasite infection; % Tox- Percent toxicity to cells by the drug.

[1] = test system: immature (4-week/old) F. gigantica; test: Experimentally infected rabbits, immature flukes; type: in vivo, Fasciola gigantica
Procedure: Nitazoxanide was tested against immature and mature Fasciola gigantica in experimentally infected rabbits. Fasciola gigantica encysted metacercariae (EMC) were collected on cellophane sheet after 28-35 days from infection of L. calludi snails by Fasciola gigantica miracidium using the technique described by […] snails were exposed daily to artificial light, for 30 minutes, in clean dechlorinated tap water. The resulting encysted […]) were preserved at 4°C in a refrigerator for 5 to 8 days under the surface of water until they were used to infect experimental animals. Forty (40) Boscat rabbits, weighting 1.5 to 2 kg each, were included in the study and allocated to two treatment groups of 20 animals. Animals from Group 1 were orally infected with 35-40 encysted […] wrapped in a leaf of lettuce and pushed on the root of the tongue of the animals. The mouths of the animals were held closed by hand until the encysted metacercariae were swallowed. These Group 1 animals were used to test the efficacy of nitazoxanide against immature stages (4-5 weeks old) of Fasciola […]. Ten animals from Group 1 received 35 mg of nitazoxanide, morning and evening, for 7 consecutive days 4 weeks after their infection at the immature stage of the parasite cycle. The ten remaining animals in Group 1 were kept as untreated controls. All animals were fed with dry ration until the end of the experiment. Seven days after administration of the last dose of nitazoxanide, all rabbits from each group were sacrificed. The surface of the liver was examined for the presence of necrotic migrating furrows especially at the immature stage of the parasite cycle. These necrotic areas were examined using two surgical needles in order to extract the juvenile migrating flukes according to the technique described by El-Bahy. The livers were sliced in small pieces especially around the migrating furrows and macerated under a microscope in order to extract the existing flukes. The abdominal cavity and the visceral surfaces were washed with warm water. The water was then collected, sieved and examined for identification of juvenile flukes. All the collected parasites as well as parts of them were counted in both treated and untreated animal in both Groups 1 and 2. […] The efficacy of nitazoxanide was calculated by using the formula indicated below: % efficacy(a - b)/(a)x 100 [formula] Where: • a = the number of flukes recovered from feces in the control animals • b = the number of flukes recovered from feces in the treated animals.

[2] = test system: early mature (10-week/old) F. gigantica; test: Experimentally infected rabbits, early mature flukes; type: in vivo, Fasciola gigantica
Procedure: Nitazoxanide was tested against immature and mature Fasciola gigantica in experimentally infected rabbits. Fasciola gigantica encysted metacercariae (EMC) were collected on cellophane sheet after 28-35 days from infection of L. calludi snails by Fasciola gigantica miracidium using the technique described by […] snails were exposed daily to artificial light, for 30 minutes, in clean dechlorinated tap water. The resulting encysted […]) were preserved at 4°C in a refrigerator for 5 to 8 days under the surface of water until they were used to infect experimental animals. Forty (40) Boscat rabbits, weighting 1.5 to 2 kg each, were included in the study and allocated to two treatment groups of 20 animals. […] Ten animals from Group 2 received 35 mg of nitazoxanide, morning and evening, for 7 consecutive days 10 weeks after their infection at the mature stage of the parasite. The 10 remaining animals in Group 2 were kept as untreated controls. All animals were fed with dry ration until the end of the experiment. Seven days after administration of the last dose of nitazoxanide, all rabbits from each group were sacrificed. The surface of the liver was examined for the presence of necrotic migrating furrows especially at the immature stage of the parasite cycle. These necrotic areas were examined using two surgical needles in order to extract the juvenile migrating flukes according to the technique described by El-Bahy. The livers were sliced in small pieces especially around the migrating furrows and macerated under a microscope in order to extract the existing flukes. The abdominal cavity and the visceral surfaces were washed with warm water. The water was then collected, sieved and examined for identification of juvenile flukes. All the collected parasites as well as parts of them were counted in both treated and untreated animal in both Groups 1 and 2. […] The efficacy of nitazoxanide was calculated by using the formula indicated below: % efficacy(a - b)/(a)x 100 [formula] Where: • a = the number of flukes recovered from feces in the control animals • b = the number of flukes recovered from feces in the treated animals.

[3] = 70 mg/day dose for 7 consecutive days
[4] = individual rabbits No. 1-10 versus untreated control, 35 mg morning and evening for 7 consecutive days
[5] = mean of 10 rabbits, 70 mg/day for 7 consecutive days

**Q.** For CC(=O)Oc1ccccc1C(=O)Nc1ncc([N+](=O)[O-])s1 [Nitazoxanide, 2-(acetolyloxy)-N-(5-nitro 2-thiazoly) benzamide], which “Parasite - Mean parasite count/field (12 fields analyzed)” value (“Parasite - Mean parasite count/field” for short) (C. parvum oocysts; Conc 0.01 µg/ml, 0.025% DMSO) is on record?
**A.** 714.33

**Q.** What about the “Parasite - Mean parasite count/field” value (C. parvum oocysts; Conc 0.1 µg/ml, 0.025% DMSO) of the same molecule?
**A.** 643.42

**Q.** And the “Parasite - Mean parasite count/field” value (C. parvum oocysts; Conc 1 µg/ml, 0.025% DMSO)?
**A.** 39.67

**Q.** And the “%Inhib - Percent inhibitation of parasite infection” value (C. parvum oocysts; Conc 1 µg/ml, 0.025% DMSO)?
**A.** 93.69%

**Q.** And the “Parasite - Mean parasite count/field” value (C. parvum oocysts; Conc 10 µg/ml, 0.025% DMSO)?
**A.** 11.75

**Q.** And the “%Inhib - Percent inhibitation of parasite infection” value (C. parvum oocysts; Conc 10 µg/ml, 0.025% DMSO)?
**A.** 98.13%

**Q.** And the inhibition at 0.01 µg/mL (C. parvum oocysts; Cryptosporidium parvum, 48 h, Conc 0.01 µg/ml, 0.025% DMSO, read-out: %Inhib - Percent inhibitation of parasite infection)?
**A.** ≤ 0%

**Q.** What about the inhibition at 0.1 µg/mL (C. parvum oocysts; Cryptosporidium parvum, 48 h, Conc 0.1 µg/ml, 0.025% DMSO, read-out: %Inhib - Percent inhibitation of parasite infection) of the same molecule?
**A.** ≤ 0%

**Q.** And the inhibition at 1 µg/mL (C. parvum oocysts; Cryptosporidium parvum, 48 h, Conc 1 µg/ml, 0.025% DMSO, read-out: %Inhib - Percent inhibitation of parasite infection)?
**A.** 94%

**Q.** What about the inhibition at 10 µg/mL (C. parvum oocysts; Cryptosporidium parvum, 48 h, Conc 10 µg/ml, 0.025% DMSO, read-out: %Inhib - Percent inhibitation of parasite infection) of the same molecule?
**A.** 98%

**Q.** And the “lowest concentration giving more than 90% of inhibition” value (C. parvum oocysts; in vitro against Cryptosporidium parvum)?
**A.** 1 µg/mL

**Q.** What about the overall efficacy [1, 3] of the same molecule?
**A.** moderately effective

**Q.** And the “No. of flukes extracted from liver of Treated Rabbits” value ([1]; individual rabbits No. 1-10, 35 mg morning and evening for 7 consecutive days, 4 weeks after infection)?
**A.** 3 (5×) and 4 (4×) and 2

**Q.** And the Efficacy % [1, 4]?
**A.** 50% (4×) and 40% (3×) and 42% (2×) and 60%

**Q.** And the “Efficacy %, Mean (means percentage of reduction)” value [1, 5]?
**A.** 46.77%

**Q.** What about the “No. of flukes extracted from liver of Treated Rabbits, Mean” value [1, 5] of the same molecule?
**A.** 3.3

**Q.** And the “percentage of reduction, range” value ([1]; range over 10 rabbits, 70 mg/day for 7 consecutive days)?
**A.** 40-60%

**Q.** What about the overall efficacy [2, 3] of the same molecule?
**A.** completely effective

**Q.** And the “No. of flukes extracted from liver of Treated Rabbits” value ([2]; individual rabbits No. 1-10, 35 mg morning and evening for 7 consecutive days, 10 weeks after infection)?
**A.** 0.0

**Q.** What about the Efficacy % [2, 4] of the same molecule?
**A.** 100%

**Q.** What about the “Efficacy %, Mean (reduction)” value [2, 5] of the same molecule?
**A.** 100%

**Q.** And the “No. of flukes extracted from liver of Treated Rabbits, Mean” value [2, 5]?
**A.** 0.0

Reference: EP1222921B1, “Pharmaceutical compositions of tizoxanide and/or nitazoxanide” (Romark Laboratories, L.C., priority 1997, dated 1998)
